Legend:
Assay in all cases: relative viability (nuclei count vs DMSO), 5 days (fraction); higher = more cells survive
AZD1208 + Tozasertib = compound: N[C@@H]1CCCN(c2c(/C=C3\SC(=O)NC3=O)cccc2-c2ccccc2)C1 [AZD1208] + Cc1cc(Nc2cc(N3CCN(C)CC3)nc(Sc3ccc(NC(=O)C4CC4)cc3)n2)n[nH]1 [Tozasertib] (partner 0.1 µM)
How it was run: (§1)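 Relative viability is defined as nuclei in treated wells over nuclei in vehicle wells. Duplicate plates were run and medians reported. Lung cancer cell lines in 1536-well plates were dosed by pin tool one day after seeding, with one drug or with a fixed anchor-drug dose plus five library-drug doses (not always all listed) in √10 steps, and nuclei were counted after 5 days.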

AZD1208 + Phenformin = compound: N[C@@H]1CCCN(c2c(/C=C3\SC(=O)NC3=O)cccc2-c2ccccc2)C1 [AZD1208] + N=C(N)NC(=N)NCCc1ccccc1 [Phenformin] (partner 250 µM)
How it was run: as §1

AZD1208 + Palbociclib = compound: N[C@@H]1CCCN(c2c(/C=C3\SC(=O)NC3=O)cccc2-c2ccccc2)C1 [AZD1208] + CC(=O)c1c(C)c2cnc(Nc3ccc(N4CCNCC4)cn3)nc2n(C2CCCC2)c1=O [Palbociclib] (partner 0.5 µM)
How it was run: as §1

AZD1208 + Alpelisib = compound: N[C@@H]1CCCN(c2c(/C=C3\SC(=O)NC3=O)cccc2-c2ccccc2)C1 [AZD1208] + Cc1nc(NC(=O)N2CCC[C@H]2C(N)=O)sc1-c1ccnc(C(C)(C)C(F)(F)F)c1 [Alpelisib] (partner 2 µM)
How it was run: as §1

Cell Line	relative viability (AZD1208 + Tozasertib; first compound 0.08 µM)	relative viability (AZD1208 + Tozasertib; first compound 0.253 µM)	relative viability (AZD1208 + Tozasertib; first compound 0.8 µM)	relative viability (AZD1208 + Tozasertib; first compound 2.53 µM)	relative viability (AZD1208 + Tozasertib; first compound 8 µM)	relative viability (AZD1208 + Phenformin; first compound 0.08 µM)	relative viability (AZD1208 + Phenformin; first compound 0.253 µM)	relative viability (AZD1208 + Phenformin; first compound 0.8 µM)	relative viability (AZD1208 + Phenformin; first compound 2.53 µM)	relative viability (AZD1208 + Phenformin; first compound 8 µM)	relative viability (AZD1208 + Palbociclib; first compound 0.08 µM)	relative viability (AZD1208 + Palbociclib; first compound 0.253 µM)	relative viability (AZD1208 + Palbociclib; first compound 0.8 µM)	relative viability (AZD1208 + Palbociclib; first compound 2.53 µM)	relative viability (AZD1208 + Palbociclib; first compound 8 µM)	relative viability (AZD1208 + Alpelisib; first compound 0.08 µM)	relative viability (AZD1208 + Alpelisib; first compound 0.253 µM)	relative viability (AZD1208 + Alpelisib; first compound 0.8 µM)	relative viability (AZD1208 + Alpelisib; first compound 2.53 µM)	relative viability (AZD1208 + Alpelisib; first compound 8 µM)
HCC-78	0.456	0.412	0.437	0.288	0.256	0.766	1.03	0.692	0.753	0.644	0.464	0.427	0.466	0.446	0.452	0.329	0.339	0.27	0.257	0.266
HCC-366	0.118	0.125	0.12	0.098	0.0502	0.588	0.668	0.538	0.655	0.431	0.408	0.482	0.376	0.404	0.245	0.453	0.362	0.337	0.27	0.227
HCC-827	0.445	0.409	0.412	0.385	0.401	0.423	0.436	0.425	0.418	0.378	0.493	0.411	0.405	0.481	0.509	0.969	1.04	0.915	0.859	0.893
HOP-62	0.372	0.302	0.372	0.287	0.263	0.689	0.745	0.664	0.628	0.613	0.483	0.503	0.431	0.439	0.469	1.04	0.919	0.82	0.764	0.896
IA-LM	–	–	–	–	–	–	–	–	–	–	–	–	–	–	–	0.83	0.617	0.826	0.837	0.569
LC-2-ad	0.397	0.381	0.355	0.363	0.318	0.585	0.604	0.52	0.534	0.519	0.591	0.52	0.528	0.501	0.5	0.816	0.592	0.787	0.894	0.794
LCLC-97TM1	0.223	0.23	0.175	0.135	0.132	0.358	0.498	0.429	0.447	0.335	0.197	0.203	0.199	0.216	0.19	0.267	0.212	–	0.169	0.199
LCLC-103H	0.51	0.425	0.457	0.481	0.373	0.317	0.246	0.323	0.315	0.28	0.494	0.417	0.52	0.462	0.434	0.904	0.985	0.863	0.884	0.774
LK-2	0.157	0.2	0.169	0.13	0.168	0.402	0.218	0.179	0.188	0.135	0.58	0.486	–	0.294	0.266	0.85	0.759	0.618	0.567	0.477
LOU-NH91	0.711	0.558	0.62	0.556	0.516	0.715	0.691	0.659	0.684	0.574	0.473	0.56	0.549	0.525	0.531	0.72	0.719	0.632	0.681	0.673
LU99A	0.288	0.304	0.276	0.3	0.203	0.871	0.921	0.965	0.764	0.638	0.379	0.414	0.398	0.339	0.319	0.497	0.481	0.462	0.429	0.345
NCI-H522	0.534	0.619	0.492	0.514	0.446	0.614	0.678	0.569	0.618	0.479	0.915	1.09	0.896	0.942	0.76	–	–	–	–	–
NCI-H596	0.896	0.925	0.77	0.733	0.592	0.674	1.01	0.689	0.668	0.477	–	–	–	–	–	0.387	0.573	0.351	0.376	0.353
NCI-H1299	–	–	–	–	–	–	–	–	–	–	–	–	–	–	–	1.08	1.08	1.07	1.03	1.13
NCI-H1563	–	–	–	–	–	0.64	0.644	0.709	0.617	0.665	–	–	–	–	–	0.898	0.826	0.954	0.951	0.834
NCI-H1648	0.599	0.462	0.346	0.33	0.389	–	–	–	–	–	0.277	0.255	0.244	0.227	0.294	–	–	–	–	–
NCI-H1650	0.423	0.387	0.277	0.321	0.304	0.416	0.424	0.414	0.337	0.289	0.331	0.401	0.311	0.323	0.35	–	–	–	–	–
NCI-H1703	–	–	–	–	–	–	–	–	–	–	–	–	–	–	–	0.338	0.302	0.301	0.31	0.287
NCI-H1792	–	–	–	–	–	0.371	0.233	0.179	0.258	0.138	0.697	0.663	0.616	0.587	0.554	0.629	0.742	0.579	0.608	0.535
NCI-H2342	0.454	0.499	0.453	0.418	0.421	0.563	0.585	0.52	0.569	0.462	0.494	0.456	0.494	0.548	0.456	–	–	–	–	–
SW 900	0.535	0.56	0.528	0.552	0.428	0.624	0.852	0.397	0.503	0.384	0.524	0.49	0.497	0.571	0.511	–	–	–	–	–

Reference: the supplement of paper PMC10307832
